Common to all, as to format: biochemical
In assay [1] the target is T1, ΔCTD_Reg1 (amino acids 1 to 546 of human Regnase-1) phosphorylation by TBK1 (Homo sapiens, UniProt Q5D1E8).
T1 construct: made in house; host or cells: Expi293 cells
T1 sequence (Q5D1E8 1-546): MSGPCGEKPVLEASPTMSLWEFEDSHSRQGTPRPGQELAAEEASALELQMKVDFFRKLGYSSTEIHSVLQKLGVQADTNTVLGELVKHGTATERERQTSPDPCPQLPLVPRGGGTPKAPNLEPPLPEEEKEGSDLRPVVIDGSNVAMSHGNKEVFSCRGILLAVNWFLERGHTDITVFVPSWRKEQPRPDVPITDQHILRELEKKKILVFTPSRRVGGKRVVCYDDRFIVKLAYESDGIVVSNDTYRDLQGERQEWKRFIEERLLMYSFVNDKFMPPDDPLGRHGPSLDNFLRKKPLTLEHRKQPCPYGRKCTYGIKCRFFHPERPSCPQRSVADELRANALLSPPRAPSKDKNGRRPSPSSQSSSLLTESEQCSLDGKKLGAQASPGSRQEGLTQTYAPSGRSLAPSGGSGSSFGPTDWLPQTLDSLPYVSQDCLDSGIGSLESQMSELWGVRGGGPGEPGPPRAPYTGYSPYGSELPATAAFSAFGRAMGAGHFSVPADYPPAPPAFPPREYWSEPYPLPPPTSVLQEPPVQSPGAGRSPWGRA
As to the kind of experiment: Regnase-1 phosphorylation inhibition by compounds (AlphaScreen), TBK1, CTD-deficient Regnase-1. The source says:
(§1) The full-length sequence of human Regnase-1 (UniProt ID: Q5D1E8) was used to prepare a construct having a FLAG tag on the N-terminal side and a recognition sequence for biotin ligase BirA on the C-terminal side (FL_Reg1) as a target protein. The above-mentioned Regnase-1 was expressed in mammalian Expi293 cells, purified with FLAG M2 agarose, and isolated by gel filtration chromatography. When biotinylation was required, methods from nonpatent documents (BMC biotechnology, 2008,8,41; and Protein Science, 1999,8,921-929) were used.
(§2) Among the full-length human Regnase-1 sequence, the 1st to 546th amino acid sequence was prepared and made into a construct having a FLAG tag on the N-terminal side and a biotin ligase BirA recognition sequence on the C-terminal side (herein, a Regnase-1 lacking the C-terminal domain of Regnase-1 (amino acids 547 to 599 in the case of SEQ ID NO: 2) is referred to as “ΔCTD_Reg1”. “ΔCTD_Reg1” is different from “Regnase-1ΔCTD”, which is a C-terminal domain deletion variant resulting from a frameshift mutation caused by a 1 bp deletion at codon 517, as prepared in Example 13). In addition, the sequence from amino acids 301 to 599 of the full-length human Regnase-1 sequence was designated as C-terminal Regnase-1, and a construct having a FLAG tag on the N-terminal side and a recognition sequence for biotin ligase BirA on the C-terminal side was prepared (Reg1_301-599). The above-mentioned Regnase-1 was expressed in mammalian Expi293 cells, purified with FLAG M2 agarose, and isolated by gel filtration chromatography. When biotinylation was required, methods of nonpatent documents (BMC biotechnology, 2008,8,41; and Protein Science, 1999,8,921-929) were used.
(§3) Using Kinase assay buffer III (manufactured by SignalChem) supplemented with 2 mM DTT, 100 μM sodium vanadate, and 2 mM manganese chloride, kinase (IKKβ (manufactured by SignalChem) or TBK1 (manufactured by SignalChem)) and Regnase-1 were reacted in the presence of 10 μM ATP at room temperature for 2 hours to perform a phosphorylation reaction.
(§4) Phosphorylated Regnase-1 was detected by the AlphaScreen system. After each of the above-mentioned phosphorylated Regnase-1 antibodies was added and reacted at room temperature for one hour, anti-FLAG AlphaLISA Acceptor Beads (manufactured by PerkinElmer) and Protein A AlphaScreen Donor Beads (manufactured by PerkinElmer) were added, and EnVision (manufactured by PerkinElmer) was used to measure the excited luminescence. As a result, phosphorylated Regnase-1 produced by the phosphorylation reaction by kinase was specifically detected, and signals were confirmed to be enhanced in a manner dependent on Regnase-1 and kinase concentrations (FIG. 24).
(§5) After mixing 2 nM of the above-mentioned Regnase-1 and the compound, phosphorylated Regnase-1 produced by the phosphorylation reaction was detected by the AlphaScreen system. As the results, the inhibition rate was calculated from the signals obtained when adding the compound at each concentration, by defining the signal obtained with Regnase-1 alone to be 100% inhibition rate, and the signal obtained when the same amount of solvent (DMSO) is added in place of the compound as 0% inhibition rate. The 50% inhibition concentration (μM) was calculated from the obtained dose response curve (Table 11).

Assay [2] deals with T2, Reg1_301-599 (amino acids 301-599 of human Regnase-1) phosphorylation by IKKβ (Homo sapiens, UniProt Q5D1E8).
T2 construct: made in house; host or cells: Expi293 cells
T2 sequence (Q5D1E8 301-599): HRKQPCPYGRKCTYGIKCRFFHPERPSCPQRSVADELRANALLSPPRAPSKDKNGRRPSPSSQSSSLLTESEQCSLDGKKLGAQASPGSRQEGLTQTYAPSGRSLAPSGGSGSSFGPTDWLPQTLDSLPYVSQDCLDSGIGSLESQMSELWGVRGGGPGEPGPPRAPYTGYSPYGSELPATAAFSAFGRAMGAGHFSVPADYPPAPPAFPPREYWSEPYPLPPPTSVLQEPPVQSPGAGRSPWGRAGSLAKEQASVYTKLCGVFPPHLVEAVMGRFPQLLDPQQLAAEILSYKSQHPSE
Briefly: Regnase-1 phosphorylation inhibition by compounds (AlphaScreen), IKKβ, C-terminal Regnase-1. Particulars: Table 14, read-out: Phosphorylation inhibition Reg1_301-599, 50% inhibition concentration (IKKβ).
Text: as §1, §2, §3, §4, §5
For orientation: Alpha assays give light when donor and acceptor beads are brought close together.

Assay [3] has as its target T3, Reg1_301-599 (amino acids 301-599 of human Regnase-1) phosphorylation by TBK1 (Homo sapiens, UniProt Q5D1E8).
T3 construct: made in house; host or cells: Expi293 cells
T3 sequence (Q5D1E8 301-599): T2 sequence (Q5D1E8 301-599)
As to the kind of experiment: Regnase-1 phosphorylation inhibition by compounds (AlphaScreen), TBK1, C-terminal Regnase-1. Particulars: Table 13, read-out: Phosphorylation inhibition Reg1_301-599, 50% inhibition concentration (TBK1). A digest of the protocol:
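FLAG/BirA-tagged human Regnase-1 constructs (full-length, 1–546 or 301–599), expressed in Expi293 cells, were used at 2 nM with compound and phosphorylated by IKKβ or TBK1 with 10 μM ATP, DTT, vanadate and MnCl2 for 2 h at room temperature. Phospho-Regnase-1 was read by AlphaScreen; IC50 came from % inhibition curves normalised to DMSO and Regnase-1-alone signals.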

Where [4] appears, read: Table 13, phosphorylation by TBK1, read-out: Phosphorylation inhibition ΔCTD_Reg1, 50% inhibition concentration (TBK1).
[5] abbreviates: Table 11, 2 nM Regnase-1, AlphaScreen, read-out: 50% inhibition concentration, Regnase-1 phosphorylation, ΔCTD_Reg1, TBK1.

Read-outs that look alike come from different tables or passages of the source. Residues, ends and D or L forms follow the SMILES beside them. Where only a bound is given, the exact number is not on record here.

For `CC[C@H](C)[C@@H]1NC(=O)[C@H](CC(=O)O)NC(=O)[C@H](C)N(C)C(=O)C[C@@H](C(=O)N2CCCC2)NC(=O)[C@H](Cc2ccc(O)cc2)NC(=O)[C@H](CC(=O)O)NC(=O)[C@H](Cc2c[nH]c3ccccc23)NC(=O)[C@H](Cc2ccc(O)cc2)NC(=O)[C@H](CC(=O)O)NC(=O)[C@H](Cc2ccccc2)NC(=O)[C@H](Cc2c[nH]c3ccccc23)NC1=O` [PP18] (HELM PEPTIDE1{[meA].D.I.W.F.D.Y.W.D.Y.D.[C1CCN([*:1])C1]}$PEPTIDE1,PEPTIDE1,1:R1-11:R3$$$V2.0), the IC50 worked out at 1.8 µM in assay [1] (setting [4]) and 0.5 µM in assay [2].
Regarding `CC[C@H](C)[C@@H]1NC(=O)[C@H](CO)NC(=O)[C@H](CCCNC(=N)N)NC(=O)[C@H](Cc2ccc(O)cc2)NC(=O)[C@H](Cc2ccc(O)cc2)NC(=O)[C@H](Cc2c[nH]c3ccccc23)NC(=O)[C@H](CO)NC(=O)[C@H](CCC(N)=O)NC(=O)[C@H](Cc2ccc(O)cc2)NC(=O)[C@H](CC(N)=O)NC(=O)[C@H](C)N(C)C(=O)C[C@@H](C(=O)N2CCCC2)NC(=O)[C@H](Cc2c[nH]c3ccccc23)NC1=O` [PP10] (HELM PEPTIDE1{[meA].N.Y.Q.S.W.Y.Y.R.S.I.W.D.[C1CCN([*:1])C1]}$PEPTIDE1,PEPTIDE1,1:R1-13:R3$$$V2.0), the IC50 in assay [1] (setting [4]) came out at 0.2 µM; in assay [3], 0.4 µM; in assay [2], 1.8 µM.
As for `CC[C@H](C)[C@@H]1NC(=O)[C@H](Cc2c[nH]c3ccccc23)NC(=O)[C@H](CCC(N)=O)NC(=O)[C@H](Cc2ccc(O)cc2)NC(=O)[C@H](C(C)C)NC(=O)[C@H](C)NC(=O)[C@H](Cc2ccc(O)cc2)NC(=O)[C@H](CCCNC(=N)N)NC(=O)[C@H](C)N(C)C(=O)C[C@@H](C(=O)N2CCCC2)NC(=O)[C@@H]2CCCN2C(=O)[C@H](Cc2ccc(O)cc2)NC1=O` [PP12] (HELM PEPTIDE1{[meA].R.Y.A.V.Y.Q.W.I.Y.P.D.[C1CCN([*:1])C1]}$PEPTIDE1,PEPTIDE1,1:R1-12:R3$$$V2.0), the IC50 amounted to 19.6 µM in assay [3] and 20.7 µM in assay [2].
For the compound `CC[C@H](C)[C@@H]1NC(=O)[C@H](Cc2c[nH]c3ccccc23)NC(=O)[C@@H](Cc2ccccc2)NC(=O)[C@H](CCCCN)NC(=O)[C@H](C)N(C)C(=O)C[C@@H](C(=O)N2CCCC2)NC(=O)[C@H](CCC(=O)O)NC(=O)[C@H](Cc2ccccc2)NC(=O)[C@H](CO)NC(=O)[C@H](Cc2c[nH]cn2)NC(=O)[C@H](Cc2c[nH]cn2)NC1=O` [PP20] (HELM PEPTIDE1{[meA].K.[dF].W.I.H.H.S.F.E.D.[C1CCN([*:1])C1]}$PEPTIDE1,PEPTIDE1,1:R1-11:R3$$$V2.0), the IC50 in assay [1] (setting [4]), in assay [3] and in assay [2] was more than 62.1 µM throughout.
As to `CC[C@H](C)[C@@H]1NC(=O)[C@H](CCCNC(=N)N)NC(=O)[C@H](Cc2ccc(O)cc2)NC(=O)[C@H](Cc2c[nH]c3ccccc23)NC(=O)[C@H](C)NC(=O)[C@H](CO)NC(=O)[C@H](C)NC(=O)[C@H](Cc2c[nH]cn2)NC(=O)[C@H](CCCCN)NC(=O)[C@@H](C)N(C)C(=O)C[C@@H](C(=O)N2CCCC2)NC(=O)[C@H](Cc2c[nH]c3ccccc23)NC1=O` [PP3] (HELM PEPTIDE1{[C[C@H](C(=O)[*:2])N(C)[*:1]].K.H.A.S.A.W.Y.R.I.W.D.[C1CCN([*:1])C1]}$PEPTIDE1,PEPTIDE1,1:R1-12:R3$$$V2.0), the IC50 in assay [1] (setting [5]) was determined as 5.7 µM; in assay [3] it was 7.1 µM; in assay [2], 6.8 µM.
Regarding `CC(C)[C@@H]1NC(=O)[C@H](CCCCN)NC(=O)[C@H](Cc2ccc(O)cc2)NC(=O)[C@H](Cc2c[nH]c3ccccc23)NC(=O)[C@H](CO)NC(=O)[C@H]([C@@H](C)O)NC(=O)[C@H](C)N(C)C(=O)C[C@@H](C(=O)N2CCCC2)NC(=O)[C@H](CCC(N)=O)NC(=O)CNC(=O)[C@H](Cc2c[nH]c3ccccc23)NC(=O)[C@H](CC(N)=O)NC1=O` [PP1] (HELM PEPTIDE1{[meA].T.S.W.Y.K.V.N.W.G.Q.D.[C1CCN([*:1])C1]}$PEPTIDE1,PEPTIDE1,1:R1-12:R3$$$V2.0), the IC50 in assay [1] (setting [5]), in assay [1] (setting [4]), in assay [3] and in assay [2] was more than 62.1 µM each time.
On to `CC[C@H](C)[C@@H]1NC(=O)[C@H](Cc2c[nH]c3ccccc23)NC(=O)[C@H](CCCNC(=N)N)NC(=O)[C@H](Cc2ccccc2)NC(=O)[C@H](CCC(N)=O)NC(=O)[C@H](C)NC(=O)[C@H](Cc2ccccc2)NC(=O)[C@H](CCCCN)NC(=O)[C@H](C)N(C)C(=O)C[C@@H](C(=O)N2CCCC2)NC(=O)[C@@H]2CCCN2C(=O)[C@H](Cc2ccc(O)cc2)NC1=O` [PP11] (HELM PEPTIDE1{[meA].K.F.A.Q.F.R.W.I.Y.P.D.[C1CCN([*:1])C1]}$PEPTIDE1,PEPTIDE1,1:R1-12:R3$$$V2.0), for which the IC50 in assay [3] and in assay [2] was more than 62.1 µM throughout.

(Values after US20250018014A1, “METHOD FOR TREATING AND/OR PREVENTING REGNASE-1-RELATED DISEASE” (OSAKA UNIVERSITY, priority 2018, published 2025).)
